Data taken from US8895551B2, “Acrylamide compounds and the use thereof” (Shionogi & Co., Ltd., priority 2009, dated 2014).

Target: T1, N-type calcium channel (NTCC) (Homo sapiens, UniProt Q00975)
T1 construct: host or cells: IMR32 cells differentiated with dibutyryl cyclic AMP and bromodeoxyuridine
Assay: FLIPR calcium mobilization assay for N-type calcium channel
Type: cell-based
Conditions: N-type calcium channel (NTCC) blockers after a calcium mobilization in vitro assay; differentiated IMR32 cells
Procedure: Cell maintenance and differentiation. Unless noted otherwise, cell culture reagents were purchased from Mediatech of Herndon, Md. IMR32 cells (American Type Culture Collection, ATCC, Manassas, Va.) were routinely cultured in growth medium consisting of minimum essential medium containing 10% fetal bovine serum (FBS, Hyclone, Logan, Utah), 100 U/mL penicillin, 100 μg/mL streptomycin, 2 mM L-glutamine, 1 mM sodium pyruvate, and 1×MEM non-essential amino acids. 80-90% confluent flasks of cells were differentiated using the following differentiation medium: Growth medium plus 1 mM dibutyryl cyclic AMP (Sigma, St. Louis, Mo.), and 2.5 μM bromodeoxyuridine (Sigma). Cells were differentiated for 8 days by replacing differentiation medium every 2-3 days.
FLIPR Calcium Mobilization Assay for N-type Calcium Channel. One day prior to performing this assay, differentiated IMR32 cells were treated with 1× CellStripper, and seeded on poly-D-lysine-coated 96-well clear-bottom black plates (Becton Dickinson, Franklin Lakes, N.J.) at 200,000 cells/well. On the day of the assay, the cell plates were washed with IMR32 buffer (127 mM NaCl, 1 mM KCl, 2 mM MgCl2, 700 μM NaH2PO4, 5 mM CaCl2, 5 mM NaHCO3, 8 mM HEPES, 10 mM glucose, pH 7.4), then pre-stimulated with KCl and loaded as follows: 0.05 mL of IMR^32 buffer, 0.05 mL of each compound tested diluted in IMR^32 buffer containing 20 μM nitrendipine (Sigma), and 0.1 mL KCl dissolved in IMR^32 buffer, plus Fluo-4 were added (3 μM final concentration, Molecular Probes, Eugene, Oreg.). Final test compound concentrations ranged from about 846 μM to about 17 μM, final nitrendipine concentration was 5 μM, and final KCl concentration was 90 mM. After 1 hour, the cells were washed twice with 0.05 mL of each compound tested in nitrendipine-containing IMR32 buffer (no KCl or Fluo-4), and then replaced with 0.1 mL of each compound tested in nitrendipine-containing IMR^32 buffer. Plates were then transferred to a Fluorimetric Imaging Plate Reader (FLIPR^96, Molecular Devices, Inc., Sunnyvale, Calif.) for assay. The FLIPR measured basal Fluo-4 fluorescence for 315 seconds (i.e., 5 minutes and 15 seconds), then added 0.1 mL KCl agonist dissolved in IMR32 buffer and measured fluorescence for another 45 seconds. Final test compound concentrations on the cells after FLIPR read ranged from about 846 μM to about 17 μM, final nitrendipine concentration was 5 μM, and final KCl concentration was 90 mM. Data were collected over the entire time course and analyzed using Excel, Graph Pad Prism (version 3.02, Graph Pad, San Diego, Calif.), or an in-house non-linear regression analysis software.

T1 sequence (Q00975 whole entry): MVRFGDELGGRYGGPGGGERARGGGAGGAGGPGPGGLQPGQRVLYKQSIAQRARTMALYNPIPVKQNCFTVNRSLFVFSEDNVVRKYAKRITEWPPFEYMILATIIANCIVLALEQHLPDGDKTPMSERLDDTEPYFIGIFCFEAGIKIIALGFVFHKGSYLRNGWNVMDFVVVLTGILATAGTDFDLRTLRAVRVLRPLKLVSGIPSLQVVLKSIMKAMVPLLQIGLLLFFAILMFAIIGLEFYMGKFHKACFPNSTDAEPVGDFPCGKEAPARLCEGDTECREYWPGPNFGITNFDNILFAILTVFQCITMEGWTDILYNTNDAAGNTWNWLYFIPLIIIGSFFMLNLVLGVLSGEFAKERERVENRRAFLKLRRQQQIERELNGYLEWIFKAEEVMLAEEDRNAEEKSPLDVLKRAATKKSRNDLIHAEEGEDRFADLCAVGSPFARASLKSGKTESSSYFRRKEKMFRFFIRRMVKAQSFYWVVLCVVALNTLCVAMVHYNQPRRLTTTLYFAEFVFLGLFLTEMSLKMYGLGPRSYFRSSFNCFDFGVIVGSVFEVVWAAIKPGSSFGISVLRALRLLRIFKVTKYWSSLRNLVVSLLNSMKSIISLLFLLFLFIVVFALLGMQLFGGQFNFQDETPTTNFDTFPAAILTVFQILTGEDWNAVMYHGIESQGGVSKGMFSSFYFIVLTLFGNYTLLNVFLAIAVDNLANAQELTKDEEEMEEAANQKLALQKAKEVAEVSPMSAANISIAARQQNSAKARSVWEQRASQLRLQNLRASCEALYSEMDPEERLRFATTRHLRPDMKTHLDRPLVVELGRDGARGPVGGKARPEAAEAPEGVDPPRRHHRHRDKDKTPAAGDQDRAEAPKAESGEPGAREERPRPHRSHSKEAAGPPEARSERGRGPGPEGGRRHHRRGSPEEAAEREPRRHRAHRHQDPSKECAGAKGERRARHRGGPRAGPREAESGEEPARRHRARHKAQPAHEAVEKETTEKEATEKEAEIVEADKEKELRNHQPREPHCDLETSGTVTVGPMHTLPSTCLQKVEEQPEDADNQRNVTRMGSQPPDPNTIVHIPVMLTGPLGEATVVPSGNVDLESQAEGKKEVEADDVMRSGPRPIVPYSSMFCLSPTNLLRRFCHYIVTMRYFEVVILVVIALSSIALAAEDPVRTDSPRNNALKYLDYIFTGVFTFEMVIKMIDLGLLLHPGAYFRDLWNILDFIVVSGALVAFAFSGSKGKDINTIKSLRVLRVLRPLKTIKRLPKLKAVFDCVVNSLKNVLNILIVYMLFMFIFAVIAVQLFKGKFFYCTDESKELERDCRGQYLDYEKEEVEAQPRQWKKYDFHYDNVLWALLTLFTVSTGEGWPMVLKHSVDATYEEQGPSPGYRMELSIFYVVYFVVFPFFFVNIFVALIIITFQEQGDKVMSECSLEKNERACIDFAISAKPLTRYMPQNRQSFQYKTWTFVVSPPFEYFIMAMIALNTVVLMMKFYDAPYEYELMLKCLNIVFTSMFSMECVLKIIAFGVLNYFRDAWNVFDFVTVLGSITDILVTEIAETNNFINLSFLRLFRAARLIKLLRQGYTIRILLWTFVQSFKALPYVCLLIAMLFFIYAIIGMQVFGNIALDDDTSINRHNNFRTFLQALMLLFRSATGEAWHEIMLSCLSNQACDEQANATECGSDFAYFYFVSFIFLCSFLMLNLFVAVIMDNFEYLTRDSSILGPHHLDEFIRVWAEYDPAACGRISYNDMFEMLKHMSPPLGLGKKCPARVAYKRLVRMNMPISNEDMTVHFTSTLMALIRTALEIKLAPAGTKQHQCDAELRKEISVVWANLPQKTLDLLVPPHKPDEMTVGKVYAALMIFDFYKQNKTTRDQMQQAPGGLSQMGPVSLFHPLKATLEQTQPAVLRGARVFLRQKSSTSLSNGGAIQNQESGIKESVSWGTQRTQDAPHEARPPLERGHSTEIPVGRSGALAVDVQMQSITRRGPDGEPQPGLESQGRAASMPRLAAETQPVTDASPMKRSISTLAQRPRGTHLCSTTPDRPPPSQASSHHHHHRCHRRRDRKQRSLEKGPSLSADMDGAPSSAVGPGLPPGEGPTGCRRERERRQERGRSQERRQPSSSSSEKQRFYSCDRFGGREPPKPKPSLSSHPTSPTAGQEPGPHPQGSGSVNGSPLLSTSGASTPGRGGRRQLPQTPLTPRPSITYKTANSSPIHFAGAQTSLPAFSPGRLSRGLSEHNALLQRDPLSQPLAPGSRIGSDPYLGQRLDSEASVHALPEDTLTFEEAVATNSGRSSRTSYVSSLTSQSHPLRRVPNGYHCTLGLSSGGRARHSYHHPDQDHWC
T1 sequence (P54289 25-956 partner limits assumed): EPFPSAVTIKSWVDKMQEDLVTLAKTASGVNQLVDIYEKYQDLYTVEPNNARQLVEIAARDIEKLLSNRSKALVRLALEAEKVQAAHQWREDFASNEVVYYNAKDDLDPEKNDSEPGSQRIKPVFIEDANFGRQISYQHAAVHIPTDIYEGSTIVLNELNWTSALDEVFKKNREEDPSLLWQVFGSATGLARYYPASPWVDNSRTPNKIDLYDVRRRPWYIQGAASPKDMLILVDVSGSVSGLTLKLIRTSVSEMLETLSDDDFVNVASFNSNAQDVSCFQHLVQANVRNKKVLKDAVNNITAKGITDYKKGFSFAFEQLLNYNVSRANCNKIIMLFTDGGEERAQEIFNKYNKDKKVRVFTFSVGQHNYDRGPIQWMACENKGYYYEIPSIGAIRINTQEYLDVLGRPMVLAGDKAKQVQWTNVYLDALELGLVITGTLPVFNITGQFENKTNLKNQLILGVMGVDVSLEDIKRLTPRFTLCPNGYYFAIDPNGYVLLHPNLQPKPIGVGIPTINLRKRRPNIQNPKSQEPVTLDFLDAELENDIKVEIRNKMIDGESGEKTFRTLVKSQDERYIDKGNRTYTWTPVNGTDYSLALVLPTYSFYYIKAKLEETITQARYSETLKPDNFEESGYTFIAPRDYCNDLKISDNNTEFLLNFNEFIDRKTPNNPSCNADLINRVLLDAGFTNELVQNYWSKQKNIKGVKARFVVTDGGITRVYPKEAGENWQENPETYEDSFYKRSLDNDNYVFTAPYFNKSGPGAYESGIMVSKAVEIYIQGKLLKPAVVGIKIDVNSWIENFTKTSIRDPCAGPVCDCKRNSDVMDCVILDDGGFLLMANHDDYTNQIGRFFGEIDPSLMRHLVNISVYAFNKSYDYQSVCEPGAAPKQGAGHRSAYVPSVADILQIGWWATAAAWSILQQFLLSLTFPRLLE
T1 sequence (P54289 957-1103 partner limits assumed): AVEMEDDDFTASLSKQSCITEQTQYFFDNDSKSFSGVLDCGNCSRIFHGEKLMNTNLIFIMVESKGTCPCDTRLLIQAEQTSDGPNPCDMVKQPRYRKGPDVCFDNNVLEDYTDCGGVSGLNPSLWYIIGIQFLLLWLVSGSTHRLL
T1 sequence (P54284 whole entry partner): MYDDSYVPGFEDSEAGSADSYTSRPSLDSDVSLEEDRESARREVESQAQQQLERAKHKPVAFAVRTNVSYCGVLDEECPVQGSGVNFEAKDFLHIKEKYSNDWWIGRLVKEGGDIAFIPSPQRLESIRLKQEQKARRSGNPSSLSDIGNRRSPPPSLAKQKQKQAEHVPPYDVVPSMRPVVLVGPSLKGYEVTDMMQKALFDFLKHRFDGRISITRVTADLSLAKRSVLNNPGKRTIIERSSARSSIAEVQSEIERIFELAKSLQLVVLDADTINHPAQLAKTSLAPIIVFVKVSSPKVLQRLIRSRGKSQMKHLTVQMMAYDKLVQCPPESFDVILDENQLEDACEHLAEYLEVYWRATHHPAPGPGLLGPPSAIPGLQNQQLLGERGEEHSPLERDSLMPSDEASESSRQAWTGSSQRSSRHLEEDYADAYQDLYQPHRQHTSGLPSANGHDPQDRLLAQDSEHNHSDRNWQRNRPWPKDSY

| SMILES | IC50 |
| --- | --- |
| O=C(C=C1CCN(S(=O)(=O)c2ccc(OC(F)(F)F)cc2)CC1)NCc1ccccc1 [Example 3, N-benzyl-2-(1-(4-(trifluoromethoxy)phenylsulfonyl)piperidin-4-ylidene)Acetamide] | 0.598 µM |
| CC(C)(c1cccc(C(F)(F)F)c1)N1CCC(=CC(=O)NCC2CC2)CC1 [Example 31, N-(cyclopropylmethyl)-2-(1-(2-(3-(trifluoromethyl)phenyl)propan-2-yl)piperidin-4-ylidene)acetamide] | 0.681 µM |
| COC(=O)C(NC(=O)C=C1CCN(S(=O)(=O)c2ccc(OC(F)(F)F)cc2)CC1)c1ccc(F)cc1 (centres unmarked) [Example 19, methyl 2-(4-fluorophenyl)-2-(2-(1-(4-(trifluoromethoxy)phenylsulfonyl)piperidin-4-ylidene)acetamido)Acetate] | 0.865 µM |
| N#Cc1ccc(CNC(=O)C=C2CCN(S(=O)(=O)c3ccc(OC(F)(F)F)cc3)CC2)cc1 [Example 11, N-(4-cyanobenzyl)-2-(1-(4-(trifluoromethoxy)phenylsulfonyl)piperidin-4-ylidene)Acetamide] | 0.56 µM |
| O=C(C=C1CCN(S(=O)(=O)c2ccc(OC(F)(F)F)cc2)CC1)NC1(c2ccc(F)cc2)CC1 [Example 12, N-(1-(4-fluorophenyl)cyclopropyl)-2-(1-(4-(trifluoromethoxy)phenylsulfonyl)piperidin-4-ylidene)Acetamide] | 0.361 µM |
| O=C(C=C1CCN(S(=O)(=O)c2ccc(OC(F)(F)F)cc2)CC1)NC(CO)c1ccc(F)cc1 (centres unmarked) [Example 20, N-(1-(4-fluorophenyl)-2-hydroxyethyl)-2-(1-(4-(trifluoromethoxy)phenylsulfonyl)piperidin-4-ylidene)acetamide] | 0.822 µM |
| O=C(C=C1CCN(S(=O)(=O)c2ccc(OC(F)(F)F)cc2)CC1)NCc1ccc(F)cc1 [Example 9, N-(4-fluorobenzyl)-2-(1-(4-(trifluoromethoxy)phenylsulfonyl)piperidin-4-ylidene)Acetamide] | 0.115 µM |
| CN(Cc1ccc(F)cc1)C(=O)C=C1CCN(S(=O)(=O)c2ccc(OC(F)(F)F)cc2)CC1 [Example 10, N-(4-fluorobenzyl)-N-methyl-2-(1-(4-(trifluoromethoxy)phenylsulfonyl)piperidin-4-ylidene)Acetamide] | 0.161 µM |
| CC(C)OCCNC(=O)C=C1CCN(S(=O)(=O)c2ccc(OC(F)(F)F)cc2)CC1 [Example 15, N-(2-isopropoxyethyl)-2-(1-(4-(trifluoromethoxy)phenylsulfonyl)piperidin-4-ylidene)Acetamide] | 0.718 µM |
| O=C(C=C1CCN(S(=O)(=O)c2cccc(C(F)(F)F)c2)CC1)NCC1CC1 [Example 22, N-(cyclopropylmethyl)-2-(1-(3-(trifluoromethyl)phenylsulfonyl)piperidin-4-ylidene)acetamide] | 0.829 µM |

Other lines, results leading:

| IC50 | SMILES |
| --- | --- |
| 0.912 µM | COC(C(=O)NCC1CC1)=C1CCN(S(=O)(=O)c2ccc(OC(F)(F)F)cc2)CC1 [Example 32, N-(cyclopropylmethyl)-2-methoxy-2-(1-(4-(trifluoromethoxy)phenylsulfonyl)piperidin-4-ylidene)acetamide] |
| 0.695 µM | O=C(/C=C1\CCCN(S(=O)(=O)c2ccc(OC(F)(F)F)cc2)C1)NCC1CC1 [Example 40, (E)-N-(cyclopropylmethyl)-2-(1-(4-(trifluoromethoxy)phenylsulfonyl)piperidin-3-ylidene)acetamide] |
| 0.555 µM | CO/C(=C\C1CCN(S(=O)(=O)c2ccc(OC(F)(F)F)cc2)CC1)C(=O)NC1CC1 [Example 37, (Z)—N-cyclopropyl-2-methoxy-3-(1-(4-(trifluoromethoxy)phenylsulfonyl)piperidin-4-yl)acrylamide] |
| 0.99 µM | O=C(/C=C1\CCCN(S(=O)(=O)c2ccc(OC(F)(F)F)cc2)C1)NC1CC1 [Example 41, (E)-N-cyclopropyl-2-(1-(4-(trifluoromethoxy)phenylsulfonyl)piperidin-3-ylidene)acetamide] |
| 0.248 µM | O=C(C=C1CCN(S(=O)(=O)c2ccc(OC(F)(F)F)cc2)CC1)NCCC1CC1 [Example 13, N-(2-cyclopropylethyl)-2-(1-(4-(trifluoromethoxy)phenylsulfonyl)piperidin-4-ylidene)Acetamide] |
| 0.857 µM | CO/C(=C\C1CN(S(=O)(=O)c2ccc(OC(F)(F)F)cc2)CCO1)C(=O)NC1CC1 (centres unmarked) [Example 44, (Z)—N-cyclopropyl-2-methoxy-3-(4-(4-(trifluoromethoxy)phenylsulfonyl)morpholin-2-yl)acrylamide] |
| 0.832 µM | CO/C(=C/C1CCN(S(=O)(=O)c2ccc(OC(F)(F)F)cc2)CC1)C(=O)NC1CC1 [Example 38, (E)-N-cyclopropyl-2-methoxy-3-(1-(4-(trifluoromethoxy)phenylsulfonyl)piperidin-4-yl)acrylamide] |
